Results published in patent US12065421B2, “Inhibitors of oplophorus luciferase-derived bioluminescent complexes” (priority 2018, dated 2024).
pIC50: −log10 of the molar value.

molecular target: T1, NanoBiT® HiBiT non-luminescent peptide and LgBiT non-luminescent polypeptide (HiBiT/LgBiT bioluminescent complex) (Oplophorus gracilirostris, UniProt Q9GV45, A31E/A60N/A81I/C191F/D135N/E192K/F58L/F95D/G184S/G42A/G62A/G78A/G94A/G98A/H120P/I103V/I117V/I134L/K70R/L176M/L195S/L54V/L73R/L99Q/M102E/N171T/N193K/P142E/Q151K/Q38E/Q45L/T186S/V71I/Y165I); test: biochemical
T1 construct: fused on or other part: N-terminal Met-Val on LgBiT in place of the signal peptide (residues 1-27); The chain is split between residues 184 and 185 into LgBiT and the 11-residue HiBiT peptide (residues 185-195); C-terminal A196 is absent
T1 sequence (Q9GV45 other isoform, or with tags, fused parts or gaps with the stated changes): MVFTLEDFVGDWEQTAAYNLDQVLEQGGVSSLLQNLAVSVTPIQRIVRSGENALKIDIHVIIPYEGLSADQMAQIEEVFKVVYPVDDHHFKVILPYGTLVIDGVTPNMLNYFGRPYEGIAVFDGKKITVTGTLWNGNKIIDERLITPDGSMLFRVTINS

Structure (SMILES)	pIC50
Cc1ccc(NC(=O)c2ccccc2NS(=O)(=O)c2cccc(OC(F)(F)F)c2)cc1 [JRW-1328, N-(p-tolyl)-2-((3-(trifluoromethoxy)phenyl)sulfonamido)benzamide]	5.96
Cc1ccc(S(=O)(=O)Nc2cc(F)ccc2C(=O)Nc2cc3ccccc3s2)cc1 [JRW-1346, N-(benzo[b]thiophen-2-yl)-4-fluoro-2-((4-methylphenyl)sulfonamido)benzamide]	7.85
Cc1ccc(S(=O)(=O)Nc2ccc(F)cc2C(=O)Nc2cc3ccccc3s2)cc1 [JRW-1347, N-(benzo[b]thiophen-2-yl)-5-fluoro-2-((4-methylphenyl)sulfonamido)benzamide]	9.10
Cc1ccc(S(=O)(=O)Nc2ccc(C(F)(F)F)cc2C(=O)Nc2cc3ccccc3s2)cc1 [JRW-1388, N-(benzo[b]thiophen-2-yl)-2-((4-methylphenyl)sulfonamido)-5-(trifluoromethyl)benzamide]	9.24
